Assay: Pseudo-first-order rate constant was determined by hydrolysis p-NPP in the presence of Zn 2+ at 37 C
Type: ADME

K obs: 4.16e-07 s⁻¹
Structure (SMILES): OC[C@H]1O[C@@H]2O[C@H]3[C@H](O)[C@@H](O)[C@@H](O[C@H]4[C@H](O)[C@@H](O)[C@@H](O[C@H]5[C@H](O)[C@@H](O)[C@@H](O[C@H]6[C@H](O)[C@@H](O)[C@@H](O[C@H]7[C@H](O)[C@@H](O)[C@@H](O[C@H]8[C@H](O)[C@@H](O)[C@@H](O[C@H]1[C@H](O)[C@H]2O)O[C@@H]8CO)O[C@@H]7CO)O[C@@H]6CO)O[C@@H]5CO)O[C@@H]4CO)O[C@@H]3CO [BETADEX]
